Experiment [1] has as its target Recombinant full-length human IDO1 (Homo sapiens (Human), UniProt P14902). Put plainly: IDO1 enzymatic assay (IDO inhibitory activity). It counts as biochemical. Particulars: 2 nM enzyme, 5 μM L-tryptophan, pH6.5, 30 min pre-incubation, NFK quantified by LCMS; mean values if measured multiple times; read-out: hIDO activity (IC50 in nM). Summed up:
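N-His-tagged enzyme from E. coli at 2 nM in 37.5 mM phosphate pH6.5 with ascorbate, methylene blue, catalase; compounds 10 μM–0.5 nM, 0.6% DMSO, pre-incubated 30 min RT, then 5 μM L-tryptophan for 30 min RT. NFK quantified by LCMS against d5-tryptophan; IC50 from duplicate four-parameter fit, means where repeated.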

Experiment [2] concerns the target Recombinant human TDO comprising amino acids 19-407 (Homo sapiens (Human), UniProt P48775). Put plainly: TDO2 enzymatic assay (TDO inhibitory activity). It counts as biochemical. Particulars: 15 nM enzyme, 200 μM L-tryptophan, pH7, 30 min pre-incubation, NFK quantified by LCMS, mean values if measured multiple times. The procedure, abridged:
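His-tagged enzyme (15 nM, E. coli-expressed) in pH 7 phosphate buffer with ascorbate, catalase, BSA, Tween 20, 0.6% DMSO; 30 min RT pre-incubation with compound (10 μM–0.5 nM), then 200 μM L-tryptophan for 30 min RT. N′-formylkynurenine quantified by LCMS against deuterated tryptophan; IC50 by four-parameter fit, duplicates.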

Where [3] appears, read: read-out: hTDO activity (IC50 in nM).

Structures are written as SMILES. Like-named read-outs stand apart in the source and are kept apart here.

Chain of Recombinant human TDO comprising amino acids 19-407 (P48775 19-406 limits assumed): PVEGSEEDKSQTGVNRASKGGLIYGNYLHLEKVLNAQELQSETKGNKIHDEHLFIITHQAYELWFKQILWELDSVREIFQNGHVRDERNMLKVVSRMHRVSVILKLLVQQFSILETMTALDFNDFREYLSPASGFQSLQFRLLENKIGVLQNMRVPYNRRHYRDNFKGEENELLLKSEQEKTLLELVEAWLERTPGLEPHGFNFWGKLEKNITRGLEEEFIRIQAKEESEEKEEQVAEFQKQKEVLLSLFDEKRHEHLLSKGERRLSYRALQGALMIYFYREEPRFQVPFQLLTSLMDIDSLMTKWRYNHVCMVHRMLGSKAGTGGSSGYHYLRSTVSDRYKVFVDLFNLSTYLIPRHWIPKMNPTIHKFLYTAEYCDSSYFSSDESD
Chain of Recombinant full-length human IDO1 (P14902 whole entry): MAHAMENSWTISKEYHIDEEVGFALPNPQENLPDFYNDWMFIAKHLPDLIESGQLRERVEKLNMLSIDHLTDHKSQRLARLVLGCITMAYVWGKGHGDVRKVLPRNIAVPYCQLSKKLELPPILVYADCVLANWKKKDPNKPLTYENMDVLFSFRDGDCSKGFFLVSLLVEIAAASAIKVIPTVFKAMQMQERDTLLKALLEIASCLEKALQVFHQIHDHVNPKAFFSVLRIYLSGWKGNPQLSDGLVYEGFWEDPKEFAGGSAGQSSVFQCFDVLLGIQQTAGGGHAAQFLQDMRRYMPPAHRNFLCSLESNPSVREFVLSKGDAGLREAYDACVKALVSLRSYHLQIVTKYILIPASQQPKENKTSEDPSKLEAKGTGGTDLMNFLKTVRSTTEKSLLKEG

The IC50 is the concentration at which inhibition is half-maximal. Regarding `OC(c1c(C2CC2)sc2cncn12)C1CCCCCC1` (racemic) [Example 165, rac-Cycloheptyl-(2-cyclopropyl-imidazo[5,1-b]thiazol-3-yl)-methanol], the half-maximal inhibitory concentration (IC50) came out at 14.2 nM in experiment [1] and 382 nM in experiment [2] (setting [3]).

Regarding `CC1(C(O)c2c(C3CC3)sc3cncn23)CCCCCC1` (racemic) [Example 166, rac-(2-Cyclopropyl-imidazo[5,1-b]thiazol-3-yl)-(1-methyl-cycloheptyl)-methanol], the IC50 in experiment [1] came out at 32.1 nM; in experiment [2] (setting [3]), 310 nM.

Consider `Cc1sc2cncn2c1C(O)C1CCN(c2ccccc2)CC1` (racemic) [Example 169, rac-(2-Methyl-imidazo[5,1-b]thiazol-3-yl)-(1-phenyl-piperidin-4-yl)-methanol], for which the figures for the IC50 in experiment [1] and in experiment [2] (setting [3]) were 537 nM and 3960 nM, respectively.

In the case of `CC1(c2sc3cncn3c2C(O)C2CCCCC2)CC1` (racemic) [Example 170, rac-Cyclohexyl-[2-(1-methyl-cyclopropyl)-imidazo[5,1-b]thiazol-3-yl]-methanol], the concentration for half-maximal inhibition (IC50) in experiment [1] stood at 415 nM; in experiment [2] (setting [3]), 2260 nM.

As for `OC(c1cccs1)c1c(C2CC2)sc2cncn12` (racemic) [Example 171, rac-(2-Cyclopropyl-imidazo[5,1-b]thiazol-3-yl)-thiophen-2-yl-methanol], the results for the concentration for half-maximal inhibition (IC50) in experiment [1] and in experiment [2] (setting [3]) were 90.3 nM and 1580 nM, respectively.

Consider `CCc1sc2cncn2c1C(O)C1(C)CCCC1` (racemic) [Example 172, rac-(2-Ethyl-imidazo[5,1-b]thiazol-3-yl)-(1-methyl-cyclopentyl)-methanol], for which the IC50 in experiment [1] came out at 4.97 nM; in experiment [2] (setting [3]) it was 28.7 nM.

Consider `OC(c1ccsc1)c1c(C2CC2)sc2cncn12` (racemic) [Example 173, rac-(2-Cyclopropyl-imidazo[5,1-b]thiazol-3-yl)-thiophen-3-yl-methanol], for which the figures for the IC50 in experiment [1] and in experiment [2] (setting [3]) were 77.3 nM and 1770 nM, respectively.

Regarding `Cc1sc2cncn2c1C(O)C1(C)CCCCC1` (racemic) [Example 174, rac-(1-Methyl-cyclohexyl)-(2-methyl-imidazo[5,1-b]thiazol-3-yl)-methanol], the results for the IC50 in experiment [1] and in experiment [2] (setting [3]) were 32.4 nM and 37.9 nM, respectively.

`CCc1sc2cncn2c1C(O)C1(C)CCCCC1` (racemic) [Example 175, rac-(2-Ethyl-imidazo[5,1-b]thiazol-3-yl)-(1-methyl-cyclohexyl)-methanol]: the results for the IC50 in experiment [1] and in experiment [2] (setting [3]) were 7.04 nM and 66.8 nM, respectively.

Consider `CCc1sc2cncn2c1C(O)c1ccccc1` (racemic) [Example 176, rac-(2-Ethyl-imidazo[5,1-b]thiazol-3-yl)-phenyl-methanol], for which the IC50 in experiment [1] is 59.3 nM; in experiment [2] (setting [3]), 195 nM.

With `Cc1sc2cncn2c1C(O)CC1CCC(C)(C)CC1` (racemic) [Example 177, rac-2-(4,4-Dimethyl-cyclohexyl)-1-(2-methyl-imidazo[5,1-b]thiazol-3-yl)-ethanol], the half-maximal inhibitory concentration (IC50) in experiment [1] came to 199 nM; in experiment [2] (setting [3]), 1950 nM.

Turning to `CCc1sc2cncn2c1C(O)CC1CCC(C)(C)CC1` (racemic) [Example 178, rac-2-(4,4-Dimethyl-cyclohexyl)-1-(2-ethyl-imidazo[5,1-b]thiazol-3-yl)-ethanol], the IC50 is 118 nM in experiment [1] and 1290 nM in experiment [2] (setting [3]).

Turning to `CCc1sc2cncn2c1C(O)CC1CCCC1` (racemic) [Example 179, rac-2-Cyclopentyl-1-(2-ethyl-imidazo[5,1-b]thiazol-3-yl)-ethanol], the half-maximal inhibitory concentration (IC50) is 28.9 nM in experiment [1] and 203 nM in experiment [2] (setting [3]).

In the case of `CCc1sc2cncn2c1C(O)C1CC(C)(C)C1` (racemic) [Example 180, rac-(3,3-Dimethyl-cyclobutyl)-(2-ethyl-imidazo[5,1-b]thiazol-3-yl)-methanol], the figures for the IC50 in experiment [1] and in experiment [2] (setting [3]) were 6.65 nM and 72.9 nM, respectively.

Take `OC(c1c(-c2cccc(F)c2)sc2cncn12)C1CCCCC1` (racemic) [Example 181, rac-Cyclohexyl-[2-(3-fluoro-phenyl)-imidazo[5,1-b]thiazol-3-yl]-methanol]: the IC50 in experiment [1] is 965 nM; in experiment [2] (setting [3]) it was 885 nM.

Regarding `OC(c1c(-c2ccccc2F)sc2cncn12)C1CCCCC1` (racemic) [Example 182, rac-Cyclohexyl-[2-(2-fluoro-phenyl)-imidazo[5,1-b]thiazol-3-yl]-methanol], the figures for the IC50 in experiment [1] and in experiment [2] (setting [3]) were 441 nM and 239 nM, respectively.

`Cc1sc2cncn2c1C(O)CC1CCCC1` (racemic) [Example 183, rac-2-Cyclopentyl-1-(2-methyl-imidazo[5,1-b]thiazol-3-yl)-ethanol]: the 50% inhibitory concentration (IC50) in experiment [1] was 190 nM; in experiment [2] (setting [3]), 573 nM.

With `OC(c1c(C2(F)CC2)sc2cncn12)C1CCCCC1` (racemic) [Example 184, rac-Cyclohexyl-[2-(1-fluoro-cyclopropyl)-imidazo[5,1-b]thiazol-3-yl]-methanol], the results for the concentration for half-maximal inhibition (IC50) in experiment [1] and in experiment [2] (setting [3]) were 115 nM and 1760 nM, respectively.

For `CC(C)n1cc(C(O)c2c(C3CC3)sc3cncn23)cn1` (racemic) [Example 188, rac-(2-Cyclopropyl-imidazo[5,1-b]thiazol-3-yl)-(1-isopropyl-1H-pyrazol-4-yl)-methanol], the IC50 in experiment [1] was 111 nM; in experiment [2] (setting [3]), above 10200 nM.

Regarding `OC(c1cnn(C2CCCC2)c1)c1c(C2CC2)sc2cncn12` (racemic) [Example 189, rac-(1-Cyclopentyl-1H-pyrazol-4-yl)-(2-cyclopropyl-imidazo[5,1-b]thiazol-3-yl)-methanol], the values for the IC50 in experiment [1] and in experiment [2] (setting [3]) were 112 nM and above 10200 nM, respectively.

For the molecule `OC(c1c(C2CC2)sc2cncn12)C12CCC(c3ccccc3)(C1)C2` (racemic) [Example 190, rac-(2-Cyclopropyl-imidazo[5,1-b]thiazol-3-yl)-(4-phenyl-bicyclo[2.1.1]hex-1-yl)-methanol], the half-inhibitory concentration (IC50) was 61.2 nM in experiment [1] and 891 nM in experiment [2] (setting [3]).

Turning to `OC(c1c(C2CC2)sc2cncn12)C12CC(c3ccccc3)(C1)C2` (racemic) [Example 191, rac-(2-Cycclopropyl-imidazo[5,1-b]thiazol-3-yl)-(3-phenyl-bicyclo[1.1.1]pent-1-yl)-methanol], the IC50 amounted to 28.6 nM in experiment [1] and 1270 nM in experiment [2] (setting [3]).

For the molecule `Cn1cc(C(O)c2c(C3CC3)sc3cncn23)nn1` (racemic) [Example 192, rac-(2-Cyclopropyl-imidazo[5,1-b]thiazol-3-yl)-(1-methyl-1H-[1,2,3]triazol-4-yl)-methanol], the half-maximal inhibitory concentration (IC50) in experiment [1] is 590 nM; in experiment [2] (setting [3]) it was above 10200 nM.

As for `CCn1cc(C(O)c2c(C3CC3)sc3cncn23)nn1` (racemic) [Example 193, rac-(2-Cyclopropyl-imidazo[5,1-b]thiazol-3-yl)-(1-ethyl-1H-[1,2,3]triazol-4-yl)-methanol], the 50% inhibitory concentration (IC50) was 498 nM in experiment [1] and above 10200 nM in experiment [2] (setting [3]).

Consider `CC(C)n1cc(C(O)c2c(C3CC3)sc3cncn23)nn1` (racemic) [Example 194, rac-(2-Cyclopropyl-imidazo[5,1-b]thiazol-3-yl)-(1-isopropyl-1H-[1,2,3]triazol-4-yl)-methanol], for which the IC50 in experiment [1] was 304 nM; in experiment [2] (setting [3]), above 10200 nM.

Turning to `OC(c1cn(C2CCCC2)nn1)c1c(C2CC2)sc2cncn12` (racemic) [Example 195, rac-(1-Cyclopentyl-1H-[1,2,3]triazol-4-yl)-(2-cyclopropyl-imidazo[5,1-b]thiazol-3-yl)-methanol], the IC50 in experiment [1] is 96.1 nM; in experiment [2] (setting [3]) it was above 10200 nM.

For the molecule `OC(c1cn(C2CCC2)nn1)c1c(C2CC2)sc2cncn12` (racemic) [Example 196, rac-(1-Cyclobutyl-1H-[1,2,3]triazol-4-yl)-(2-cyclopropyl-imidazo[5,1-b]thiazol-3-yl)-methanol], the figures for the half-maximal inhibitory concentration (IC50) in experiment [1] and in experiment [2] (setting [3]) were 183 nM and above 10200 nM, respectively.

For `OC(c1cn(C2CCCCC2)nn1)c1c(C2CC2)sc2cncn12` (racemic) [Example 197, rac-(1-Cyclohexyl-1H-[1,2,3]triazol-4-yl)-(2-cyclopropyl-imidazo[5,1-b]thiazol-3-yl)-methanol], the figures for the IC50 in experiment [1] and in experiment [2] (setting [3]) were 287 nM and above 10200 nM, respectively.

Consider `CCc1sc2cncn2c1C(O)c1cn(C2CCCC2)nn1` (racemic) [Example 198, rac-(1-Cyclopentyl-1H-[1,2,3]triazol-4-yl)-(2-ethyl-imidazo[5,1-b]thiazol-3-yl)-methanol], for which the IC50 in experiment [1] was 116 nM; in experiment [2] (setting [3]), above 10200 nM.

As to `Cc1sc2cncn2c1C(O)c1cn(C2CCCC2)nn1` (racemic) [Example 199, rac-(1-Cyclopentyl-1H-[1,2,3]triazol-4-yl)-(2-methyl-imidazo[5,1-b]thiazol-3-yl)-methanol], the results for the IC50 in experiment [1] and in experiment [2] (setting [3]) were 835 nM and above 10200 nM, respectively.

For the molecule `OC(c1c[nH]nn1)c1c(C2CC2)sc2cncn12` (racemic) [Example 200, rac-(2-Cyclopropyl-imidazo[5,1-b]thiazol-3-yl)-(1H-[1,2,3]triazol-4-yl)-methanol], the IC50 in experiment [1] was 1950 nM; in experiment [2] (setting [3]) it was above 10200 nM.

For the molecule `OC(c1c(C2CC2)sc2cncn12)[C@H]1C[C@@H]2CC[C@H]1C2` (relative stereo) [Example 20, rac-(1R*,2R*,4S*)-Bicyclo[2.2.1]hept-2-yl-(2-cyclopropyl-imidazo[5,1-b]thiazol-3-yl)-methanol], the IC50 in experiment [1] was found to be 16.1 nM; in experiment [2] (hTDO activity (IC50 in nM)), 190 nM.
